These results are taken from patent US20180000798A1, “USE OF ACLIDINIUM” (Almirall, S.A., priority 2012, published 2018).

Data set [1] in a line: Solubility of aclidinium bromide. The format is physicochemical. The text has this: Aclidinium bromide is a white powder with a molecular formula of C26H30NO4S2Br and a molecular mass of 564.56.
Data set [2] has as its system patients with moderate to severe COPD. The experiment in a line: Phase III randomized, double-blind, placebo controlled crossover trial; physical activity measured with multisensor armband. The format is in vivo. The following applies: week 3; for Δ Comparison versus placebo, change from baseline in daily active energy expenditure / Δ Comparison versus placebo, change from baseline in duration of at least moderate activity: 400 micrograms aclidinium bromide per inhalation twice-daily, p < 0.05. From the text: In a Phase III randomized, double-blind, placebo controlled, 2 period crossover trial, patients with moderate to severe COPD received a dose of aclidinium equivalent to a metered nominal dose of 400 micrograms of aclidinium bromide per inhalation twice-daily (in the morning, 9 am, and in the evening, […]) and placebo for two periods of 3 weeks, with a washout period of 2 weeks between treatment periods.
Patients were randomised to receive either a dose of aclidinium equivalent to a metered nominal dose of 400 micrograms of aclidinium bromide per inhalation twice-daily in the first period followed by placebo in the second period, or to receive placebo in the first period followed by aclidinium bromide 400 micrograms twice-daily in the second period. Both aclidinium bromide and placebo were administered with a Genuair® multidose dry powder inhaler.
Physical activity (as minutes of at least moderate activity per day and as average active energy expenditure expressed in Kcal) was measured in the last week of the treatment with aclidinium and placebo using a multisensor armband (SenseWear™ Pro Armband; BodyMedia, Pittsburgh, Pa., USA), was worn on the upper right over the triceps muscle, according to the method described in Watz B et al, Eur Respir J, 2009; 33: 262-272. The multisensory armband incorporates a biaxial accelerometer that records steps per day and physiological sensors of energy expenditure.
A valid period of measurement was defined as 5 days of measurement with the patients wearing the accelerometer at least 22 hours per day.
The Intention-to-Treat (ITT) population included 109 patients.

For the next data set, the system named is patients with COPD. Particulars: previous trials, cited from earlier work.
[3] abbreviates: metered nominal dose 400 micrograms aclidinium bromide per inhalation twice-daily, adjusted mean, n = 85.

Each structure is given as a SMILES string. Where two headings read alike, the source gives them in different places.

For `O=C(O[C@H]1C[N+]2(CCCOc3ccccc3)CCC1CC2)C(O)(c1cccs1)c1cccs1` [Aclidinium, 3(R)-(2-hydroxy-2,2-dithien-2-ylacetoxy)-1-(3-phenoxypropyl)-1-azoniabicyclo[2.2.2] octane], the Solubility in ethanol entry in data set [1] (ethanol) is on record as “very slightly soluble”. Besides, in data set [1] (methanol), the Solubility in methanol result is listed as “sparingly soluble”. In addition, in data set [1] (water), the Solubility in water result is “very slightly soluble”. Further, in data set [2], the “Δ Comparison versus placebo, change from baseline in daily active energy expenditure” value is given as 55 (p < 0.05) Kcal and the “Δ Comparison versus placebo, change from baseline in duration of at least moderate activity” value is 10 (p < 0.05) minutes. In addition, in data set [2] (listed as aclidinium bromide), the “Δ Comparison versus placebo, change from baseline in daily active energy expenditure” value was found to be 55 kcal and the “Δ Comparison versus placebo, change from baseline in duration of at least moderate activity” value turned out to be 10 min. In data set [2] (setting [3]), the “Change from baseline in daily active energy expenditure” value came to 21.9 kcal and the “Change from baseline in duration of at least moderate activity” value was 4.2 min.
In the case of `C[N+]1(C)[C@@H]2C[C@@H](OC(=O)C(O)(c3cccs3)c3cccs3)C[C@H]1[C@@H]1O[C@@H]12` [tiotropium], the figures for the “Improvement in physical activity versus placebo” value in the data set on patients with COPD (listed as tiotroplum) and in the data set with patients with COPD were “not observed” and “not statistically demonstrated improvements in physical activity”, respectively.
